Data: ChEMBL document CHEMBL5055685, “Discovery of the First Potent IDO1/IDO2 Dual Inhibitors: A Promising Strategy for Cancer Immunotherapy” (J Med Chem, 2021)
The source made the active and inactive calls. No cut-off for these calls is given here.

Key:
[1] = Metabolic stability in rat liver microsomes assessed as rate constant; format: ADME, Microsome
[2] = Apparent permeability across apical to basolateral side in human Caco-2 cells assessed as drug recovery; format: ADME, cell-based; details: read-out: Drug recovery
[3] = Metabolic stability in human liver microsomes assessed as rate constant; format: ADME, Microsome
[4] = Metabolic stability in monkey liver microsomes assessed as rate constant; format: ADME, Macaca mulatta, Microsome; details: rhesus monkey
[5] = Protein binding in human plasma by equilibrium dialysis; format: ADME, cell-free; details: read-out: PPB (converted)
[6] = Half life in dog liver microsomes assessed as rate constant; format: ADME, Canis lupus familiaris, Microsome
[7] = Efflux ratio of apparent permeability across basolateral to apical over apical to basolateral side in human Caco-2 cells; format: ADME, cell-based
[8] = Protein binding in ICR mouse plasma by equilibrium dialysis; format: ADME, cell-free; details: read-out: PPB (converted)
[9] = Half life in human liver microsomes; format: ADME, Microsome
PBMC = assay: Inhibition of IDO1/IDO2 in IFNgamma/LPS-stimulated human PBMCs assessed as reduction in kynurenine formation at 0.0001 to 10 uM pretreated with compound for 15 mins followed by IFNgamma/LPS stimulation by LC-MS/MS analysis; format: tissue-based; details: dose 0.0001-10 µM
[10] = Cmax in Sprague-Dawley rat at 50 mg/kg, po; format: ADME, organism-based; set-up: dose 50 mg/kg, route po; details: in vivo
Mus musculus [11] = assay: Toxicity in BALB/c mouse implanted with mouse CT26 cells assessed as adverse effect at 50 mg/kg, ip bid for 28 days; format: organism-based; details: in vivo, 672 h, time 28 day
[12] = Toxicity in rat assessed as maximum tolerated dose; format: organism-based; details: in vivo
[13] = Protein binding in ICR mouse plasma assessed as fraction unbound by equilibrium dialysis; format: ADME, cell-free
[14] = Protein binding in Sprague-Dawley rat plasma assessed as fraction unbound by equilibrium dialysis; format: ADME, cell-free
[15] = Clearance in rat liver microsomes; format: ADME, Microsome; details: read-out: CLH
[16] = Apparent permeability across basolateral to apical side in human Caco-2 cells; format: ADME, cell-based
[17] = AUC (0 to infinity) in Sprague-Dawley rat at 50 mg/kg, po; format: ADME, organism-based; set-up: time infinity, dose 50 mg/kg, route po; details: in vivo
[18] = Half life in monkey liver microsomes; format: ADME, Macaca mulatta, Microsome; details: rhesus monkey
[19] = Protein binding in Beagle dog plasma assessed as fraction unbound by equilibrium dialysis; format: ADME, cell-free, Canis lupus familiaris
Rattus norvegicus [20] = assay: Toxicity in rat assessed as rat death at […]; format: organism-based; details: in vivo
[21] = Protein binding in human plasma assessed as fraction unbound by equilibrium dialysis; format: ADME, cell-free
[22] = Half life in Sprague-Dawley rat at 5 mg/kg, iv; format: ADME, organism-based; details: in vivo
[23] = Apparent permeability across apical to basolateral side in human Caco-2 cells; format: ADME, cell-based
[24] = Metabolic stability in dog liver microsomes assessed as rate constant; format: ADME, Canis lupus familiaris, Microsome
[25] = AUC (0 to infinity) in Sprague-Dawley rat at 5 mg/kg, iv; format: ADME, organism-based; set-up: time infinity, dose 5 mg/kg, route iv; details: in vivo
[26] = molecular target: Voltage-gated inwardly rectifying potassium channel KCNH2 (Homo sapiens, UniProt Q12809); assay: Inhibition of human ERG
HCT-116 = assay: Cytotoxicity against human HCT-116 cells assessed as reduction in cell viability by CCK8 assay; format: functional, cell-based
[27] = Protein binding in monkey plasma assessed as fraction unbound by equilibrium dialysis; format: ADME, cell-free, Macaca mulatta; details: rhesus monkey
[28] = Intrinsic clearance in human liver microsomes; format: ADME, Microsome; details: read-out: CLH
HeLa = assay: Cytotoxicity against human HeLa cells assessed as reduction in cell viability at 1 to 10 uM by CCK8 assay; format: functional, cell-based; details: dose 1-10 µM
[29] = Protein binding in Sprague-Dawley rat plasma by equilibrium dialysis; format: ADME, cell-free; details: read-out: PPB (converted)
[30] = Protein binding in Beagle dog plasma by equilibrium dialysis; format: ADME, cell-free, Canis lupus familiaris; details: read-out: PPB (converted)
[31] = Clearance in dog liver microsomes; format: ADME, Canis lupus familiaris, Microsome; details: read-out: CLH
[32] = Protein binding in monkey plasma by equilibrium dialysis by equilibrium dialysis; format: ADME, cell-free, Macaca mulatta; details: rhesus monkey, read-out: PPB (converted)
[33] = molecular target: T1, Indoleamine 2,3-dioxygenase 2 (Homo sapiens, UniProt Q6ZQW0); assay: Inhibition of IDO2 (unknown origin) assessed as reduction in kynurenine formation using L-tryptophan as substrate by methylene blue reagent based assay
T1 sequence (Q6ZQW0 whole entry): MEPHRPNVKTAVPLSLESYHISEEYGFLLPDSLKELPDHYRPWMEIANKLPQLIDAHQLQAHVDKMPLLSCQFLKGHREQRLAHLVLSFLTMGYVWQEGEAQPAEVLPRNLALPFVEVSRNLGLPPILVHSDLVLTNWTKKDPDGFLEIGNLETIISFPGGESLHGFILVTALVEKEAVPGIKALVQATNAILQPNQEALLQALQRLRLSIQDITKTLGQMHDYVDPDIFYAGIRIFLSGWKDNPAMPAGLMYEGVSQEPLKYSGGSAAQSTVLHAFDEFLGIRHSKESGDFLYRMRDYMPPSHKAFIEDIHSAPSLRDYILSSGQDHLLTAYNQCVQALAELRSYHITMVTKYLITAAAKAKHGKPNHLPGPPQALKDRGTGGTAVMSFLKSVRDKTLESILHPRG

[34] = AUC (0 to t) in Sprague-Dawley rat at 5 mg/kg, iv; format: ADME, organism-based; set-up: dose 5 mg/kg, route iv; details: in vivo
[35] = molecular target: T2, Indoleamine 2,3-dioxygenase 1 (Homo sapiens, UniProt P14902); assay: Inhibition of IDO1 (unknown origin) assessed as reduction in kynurenine formation using L-tryptophan as substrate by methylene blue reagent based assay
Target sequence in this assay (P14902 whole entry): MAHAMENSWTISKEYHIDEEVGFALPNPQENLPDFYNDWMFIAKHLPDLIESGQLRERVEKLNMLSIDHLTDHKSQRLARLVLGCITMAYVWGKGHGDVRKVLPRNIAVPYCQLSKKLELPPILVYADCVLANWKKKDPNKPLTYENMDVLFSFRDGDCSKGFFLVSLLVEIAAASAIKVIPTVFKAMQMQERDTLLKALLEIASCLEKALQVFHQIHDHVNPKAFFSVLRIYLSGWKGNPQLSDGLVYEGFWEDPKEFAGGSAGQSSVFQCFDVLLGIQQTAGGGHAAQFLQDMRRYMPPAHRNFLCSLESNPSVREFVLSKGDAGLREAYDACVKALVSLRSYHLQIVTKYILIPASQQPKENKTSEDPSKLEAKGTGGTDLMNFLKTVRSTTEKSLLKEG

[36] = Oral bioavailability in Sprague-Dawley rat at 50 mg/kg; format: ADME, organism-based; details: in vivo
[37] = Clearance in mouse liver microsomes; format: ADME, Microsome; details: read-out: CLH
CT26 [38] = assay: Cytotoxicity against mouse CT26 cells assessed as reduction in cell viability by CCK8 assay; format: functional, cell-based
[39] = Volume of distribution at steady state in Sprague-Dawley rat at 5 mg/kg, iv; format: ADME, organism-based; details: in vivo, read-out: Vdss
Mus musculus [40] = assay: Toxicity in BALB/c mouse implanted with mouse CT26 cells assessed as weight loss at 50 mg/kg, ip bid for 28 days; format: organism-based; details: in vivo, 672 h, time 28 day
[41] = Half life in Sprague-Dawley rat at 50 mg/kg, po; format: ADME, organism-based; details: in vivo
[42] = Half life in rat liver microsomes; format: ADME, Microsome
[43] = Intrinsic clearance in monkey liver microsomes; format: ADME, Macaca mulatta, Microsome; details: rhesus monkey, read-out: CLH
[44] = Half life in mouse liver microsomes; format: ADME, Microsome
HT-29 = assay: Cytotoxicity against human HT-29 cells assessed as reduction in cell viability by CCK8 assay; format: functional, cell-based
Rattus norvegicus [45] = assay: Toxicity in rat assessed as weight loss at […]; format: organism-based; details: in vivo
[46] = Apparent permeability across basolateral to apical side in human Caco-2 cells assessed as drug recovery; format: ADME, cell-based; details: read-out: Drug recovery
[47] = AUC (0 to t) in Sprague-Dawley rat at 50 mg/kg, po; format: ADME, organism-based; set-up: dose 50 mg/kg, route po; details: in vivo
[48] = Tmax in Sprague-Dawley rat at 50 mg/kg, po; format: ADME, organism-based; details: in vivo
CT26 [49] = assay: Antitumor activity against mouse CT26 cells implanted in BALB/c mouse assessed as tumor growth inhibition at 50 mg/kg, ip bid for 28 days by vernier caliper method relative to control; format: functional; details: CT26, 672 h, time 28 day, read-out: TGI
[50] = Metabolic stability in mouse liver microsomes assessed as rate constant; format: ADME, Microsome
[51] = molecular target: T3, Indoleamine 2,3-dioxygenase 2 (Homo sapiens) (UniProt Q6ZQW0); assay: Inhibition of IDO2 (unknown origin) assessed as reduction in kynurenine formation using L-tryptophan as substrate by methylene blue reagent based assay relative to control; set-up: concentration or dose not given beside the values; details: concentration not given here
T3 sequence (whole entry): T1 sequence (Q6ZQW0 whole entry)

[52] = molecular target: T2, Indoleamine 2,3-dioxygenase 1; assay: Inhibition of IDO1 (unknown origin) assessed as reduction in kynurenine formation using L-tryptophan as substrate by methylene blue reagent based assay relative to control; set-up: concentration or dose not given beside the values; details: concentration not given here
Target sequence in this assay (P14902 whole entry, looked up): as the sequence (P14902 whole entry) above

[53] = molecular target: T2, Indoleamine 2,3-dioxygenase 1; assay: Inhibition of IDO1 in IFNgamma-stimulated human HeLa cells assessed as reduction in kynurenine formation measured after 48 hrs by spectrophotometry
Target sequence in this assay (P14902 whole entry): as above

Voltage-gated inwardly rectifying potassium channel KCNH2, sequence (Q12809 whole entry): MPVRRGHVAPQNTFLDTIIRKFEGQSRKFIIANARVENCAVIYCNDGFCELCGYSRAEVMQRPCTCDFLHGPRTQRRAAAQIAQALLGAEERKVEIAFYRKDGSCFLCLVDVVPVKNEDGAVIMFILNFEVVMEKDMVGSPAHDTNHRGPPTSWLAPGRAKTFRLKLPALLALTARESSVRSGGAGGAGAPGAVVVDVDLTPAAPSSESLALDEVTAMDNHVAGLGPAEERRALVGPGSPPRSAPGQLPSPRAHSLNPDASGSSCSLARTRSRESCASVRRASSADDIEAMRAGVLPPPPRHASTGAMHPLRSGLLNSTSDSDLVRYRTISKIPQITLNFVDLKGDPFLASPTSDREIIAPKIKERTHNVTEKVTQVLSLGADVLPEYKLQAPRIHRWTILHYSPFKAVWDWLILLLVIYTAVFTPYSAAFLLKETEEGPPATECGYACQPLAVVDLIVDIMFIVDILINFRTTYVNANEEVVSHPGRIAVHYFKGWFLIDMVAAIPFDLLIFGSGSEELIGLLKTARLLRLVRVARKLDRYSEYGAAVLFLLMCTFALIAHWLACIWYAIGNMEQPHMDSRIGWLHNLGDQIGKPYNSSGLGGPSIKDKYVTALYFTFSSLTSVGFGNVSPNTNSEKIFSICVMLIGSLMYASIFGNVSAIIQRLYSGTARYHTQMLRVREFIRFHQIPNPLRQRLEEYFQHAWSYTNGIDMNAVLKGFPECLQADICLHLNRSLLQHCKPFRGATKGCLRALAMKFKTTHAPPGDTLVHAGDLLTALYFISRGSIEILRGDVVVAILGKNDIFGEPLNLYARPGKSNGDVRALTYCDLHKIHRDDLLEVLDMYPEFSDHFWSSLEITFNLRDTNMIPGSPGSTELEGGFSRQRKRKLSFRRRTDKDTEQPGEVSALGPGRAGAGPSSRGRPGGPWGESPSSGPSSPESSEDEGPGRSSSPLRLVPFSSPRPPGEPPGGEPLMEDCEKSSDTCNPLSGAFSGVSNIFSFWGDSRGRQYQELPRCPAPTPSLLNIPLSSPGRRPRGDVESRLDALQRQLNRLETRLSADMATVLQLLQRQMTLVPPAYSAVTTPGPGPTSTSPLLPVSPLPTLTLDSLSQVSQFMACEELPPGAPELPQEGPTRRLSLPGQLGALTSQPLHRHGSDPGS

SMILES: CC(O)c1cn(CCNc2nonc2/C(=N/O)Nc2ccc(F)c(Br)c2)nn1 (stereo not given)
- k el [1]: 0.00218 s⁻¹
- recovery [2]: 95.5%
- k el [3]: 4.35e-05 s⁻¹
- k el [4]: 0.000168 s⁻¹
- fraction unbound [5]: 0.0192
- half-life [6]: 5.31 min
- efflux ratio [7]: 5.9
- fraction unbound [8]: 0.0584
- half-life [9]: 272 min
- inhibition (PBMC): Active
- Cmax [10]: 2730 ng/mL
- Activity (Mus musculus [11]): Non-Toxic
- MTD [12]: 2 mg/kg
- fraction unbound [13]: 0.0584
- fraction unbound [14]: 0.044
- microsomal CLint [15]: 64.2 µL/min/mg
- Papp B→A [16]: 80.9 ×10⁻⁶ cm/s
- AUC(0-inf) [17]: 11500 ng·h/mL
- half-life [18]: 68.8 min
- fraction unbound [19]: 0.0239
- Activity (Rattus norvegicus [20]): Non-Toxic
- fraction unbound [21]: 0.0192
- half-life [22]: 48 min
- Papp A→B [23]: 13.8 ×10⁻⁶ cm/s
- k el [24]: 0.00218 s⁻¹
- AUC [25]: 5670 ng·h/mL
- IC50 [26]: > 30000 nM
- IC50 (HCT-116): 23700 nM
- fraction unbound [27]: 0.0371
- microsomal CLint [28]: 5.22 µL/min/mg
- Activity (HeLa): Active
- fraction unbound [29]: 0.04
- fraction unbound [30]: 0.0239
- microsomal CLint [31]: 261 µL/min/mg
- fraction unbound [32]: 0.0371
- IC50 [33]: 362 nM
- AUC(0-t) [34]: 5590 ng·h/mL
- IC50 [35]: 53 nM
- bioavailability [36]: 20.4%
- microsomal CLint [37]: 33.6 µL/min/mg
- IC50 (CT26 [38]): 27500 nM
- Vd [39]: 1.2 L/kg
- Activity (Mus musculus [40]): Non-Toxic
- half-life [41]: 78 min
- half-life [42]: 21.6 min
- microsomal CLint [43]: 20.2 µL/min/mg
- half-life [44]: 41.2 min
- IC50 (HT-29): 46000 nM
- Activity (Rattus norvegicus [45]): Non-Toxic
- recovery [46]: 116%
- AUC(0-t) [47]: 11300 ng·h/mL
- Tmax [48]: 25.2 min
- inhibition in vivo at 50 mg/kg (CT26 [49]): 66.3%
- K [50]: 0.0168 min⁻¹

SMILES: CC(C)(C)c1cn(CCNc2nonc2/C(=N/O)Nc2ccc(F)c(Br)c2)nn1
- IC50 [33]: 1870 nM
- IC50 [35]: 132 nM

SMILES: O/N=C(\Nc1ccc(F)c(Br)c1)c1nonc1NCCn1cc(C2CC2)nn1
- inhibition [51]: 10%
- inhibition [52]: 37%

SMILES: O/N=C(\Nc1ccc(F)c(Br)c1)c1nonc1NCCn1cc(C2(O)CCCCC2)nn1
- IC50 [33]: 865 nM
- IC50 [35]: 62 nM

SMILES: COc1ccc(-c2cn(CCNc3nonc3/C(=N/O)Nc3ccc(F)c(Br)c3)nn2)cc1
- inhibition [51]: 15%
- inhibition [52]: 8%

SMILES: CC(OCCO)c1cn(CCNc2nonc2/C(=N/O)Nc2ccc(F)c(Br)c2)nn1 (stereo not given)
- IC50 [33]: 930 nM
- IC50 [35]: 134 nM

SMILES: CC(C)CC(C)(O)c1cn(CCNc2nonc2/C(=N/O)Nc2ccc(F)c(Br)c2)nn1 (stereo not given)
- IC50 [33]: 689 nM
- IC50 [35]: 51 nM

SMILES: CCC(O)c1cn(CCNc2nonc2/C(=N/O)Nc2ccc(F)c(Br)c2)nn1 (stereo not given)
- IC50 [33]: 947 nM
- IC50 [35]: 73 nM

SMILES: O/N=C(\Nc1ccc(F)c(Br)c1)c1nonc1NCCn1cc(-c2cccc(O)c2)nn1
- inhibition [51]: 13%
- IC50 [53]: 13.6 nM
- inhibition [52]: 38%

SMILES: OCCCCc1cn(CCNc2nonc2/C(=N/O)Nc2ccc(F)c(Br)c2)nn1
- IC50 [33]: 1080 nM
- IC50 [35]: 80 nM

SMILES: CC(C)(O)c1cn(CCNc2nonc2/C(=N/O)Nc2ccc(F)c(Br)c2)nn1
- IC50 [33]: 726 nM
- IC50 [35]: 115 nM
